# According to US5872126A, “Methods and compositions for treating preterm labor” (priority 1997, dated 1999):
# Where “and” joins values, the source holds several entries; their conditions need not be identical. Identical values can stand only once.
# T1: rat type 2 5α-reductase (Rattus norvegicus, UniProt P31214)
# T1 construct: made in house; host or cells: COS cells
# T1 sequence (P31214 1-254): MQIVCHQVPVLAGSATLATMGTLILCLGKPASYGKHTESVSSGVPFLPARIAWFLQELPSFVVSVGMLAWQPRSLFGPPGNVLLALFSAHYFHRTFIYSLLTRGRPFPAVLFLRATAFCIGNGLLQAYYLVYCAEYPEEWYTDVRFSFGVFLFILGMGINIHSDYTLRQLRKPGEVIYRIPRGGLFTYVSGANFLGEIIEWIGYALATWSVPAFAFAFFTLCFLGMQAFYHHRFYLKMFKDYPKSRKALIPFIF
# T2: 5α-reductase in rat placenta (Rattus norvegicus, UniProt P24008)
# T2 construct: microsomes prepared from rat placenta; tissue Bioproducts for Science; host or cells: rat placenta (microsomes, 100,000×g pellet of homogenate)
# T2 sequence (P24008 1-259): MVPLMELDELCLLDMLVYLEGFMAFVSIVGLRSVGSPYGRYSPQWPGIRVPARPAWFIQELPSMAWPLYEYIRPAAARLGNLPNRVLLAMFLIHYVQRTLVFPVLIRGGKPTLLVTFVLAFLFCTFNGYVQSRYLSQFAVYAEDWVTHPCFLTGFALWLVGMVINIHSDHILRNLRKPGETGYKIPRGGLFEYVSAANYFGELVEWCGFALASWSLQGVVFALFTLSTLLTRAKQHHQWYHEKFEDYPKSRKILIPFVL
# T3: rat type 1 5α-reductase (Rattus norvegicus, UniProt P24008)
# T3 construct: made in house; host or cells: COS cells
# T3 sequence (P24008 1-259): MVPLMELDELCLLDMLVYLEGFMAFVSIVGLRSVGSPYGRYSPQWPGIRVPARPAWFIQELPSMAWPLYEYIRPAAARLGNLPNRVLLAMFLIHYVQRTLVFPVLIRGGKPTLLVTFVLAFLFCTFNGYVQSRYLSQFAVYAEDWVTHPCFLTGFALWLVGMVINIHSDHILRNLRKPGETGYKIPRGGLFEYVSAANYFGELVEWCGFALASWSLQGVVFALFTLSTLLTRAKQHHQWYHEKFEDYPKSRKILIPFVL
# B1: 5α-reductase in rat placenta (Rattus norvegicus) (protein)
# chain: MVPLMELDELCLLDMLVYLEGFMAFVSIVGLRSVGSPYGRYSPQWPGIRVPARPAWFIQELPSMAWPLYEYIRPAAARLGNLPNRVLLAMFLIHYVQRTLVFPVLIRGGKPTLLVTFVLAFLFCTFNGYVQSRYLSQFAVYAEDWVTHPCFLTGFALWLVGMVINIHSDHILRNLRKPGETGYKIPRGGLFEYVSAANYFGELVEWCGFALASWSLQGVVFALFTLSTLLTRAKQHHQWYHEKFEDYPKSRKILIPFVL
# notes: microsomes prepared from rat placenta; tissue Bioproducts for Science; host or cells: rat placenta (microsomes, 100,000×g pellet of homogenate)
# B2: rat type 1 5α-reductase (Rattus norvegicus) (protein)
# chain: MVPLMELDELCLLDMLVYLEGFMAFVSIVGLRSVGSPYGRYSPQWPGIRVPARPAWFIQELPSMAWPLYEYIRPAAARLGNLPNRVLLAMFLIHYVQRTLVFPVLIRGGKPTLLVTFVLAFLFCTFNGYVQSRYLSQFAVYAEDWVTHPCFLTGFALWLVGMVINIHSDHILRNLRKPGETGYKIPRGGLFEYVSAANYFGELVEWCGFALASWSLQGVVFALFTLSTLLTRAKQHHQWYHEKFEDYPKSRKILIPFVL
# notes: made in house; host or cells: COS cells
# B3: rat type 2 5α-reductase (Rattus norvegicus) (protein)
# chain: MQIVCHQVPVLAGSATLATMGTLILCLGKPASYGKHTESVSSGVPFLPARIAWFLQELPSFVVSVGMLAWQPRSLFGPPGNVLLALFSAHYFHRTFIYSLLTRGRPFPAVLFLRATAFCIGNGLLQAYYLVYCAEYPEEWYTDVRFSFGVFLFILGMGINIHSDYTLRQLRKPGEVIYRIPRGGLFTYVSGANFLGEIIEWIGYALATWSVPAFAFAFFTLCFLGMQAFYHHRFYLKMFKDYPKSRKALIPFIF
# notes: as for B2
# Legend:
# [1] = cited from earlier work; for side effects: human, in vivo
# [2] = system: parturition in mice homozygous for genetic null mutations of type 1 5α-reductase; details: mice homozygous for type 1 5α-reductase null mutations; cited from earlier work
# [3] = system: pregnancy and myometrial contractile activity in the rat; details: exogenous progesterone; cited from earlier work
# [4] = biological target: T1, rat type 2 5α-reductase; assay: 5α-reductase assay, COS cell expressed rat type 2; format: biochemical; details: read-out: IC50 finasteride
# Procedure: (§1) Rat placenta was obtained from Bioproducts for Science. The tissue was homogenized in 10 volumes of buffer containing 0.25 sucrose, 40 mM potassium phosphate pH 6.5, 5 mM magnesium sulfate, 25 mM potassium chloride, 1 mM phenylmethylsulfonyl fluoride, and 1 mM dithiothreitol using a Potter Elverhjem homogenizer. The homogenate was centrifuged at 100,000×g for 60 minutes at 4° C. The pellet was resuspended in 1.5 volumes of buffer. Glycerol was added to the resuspended pellet to a final concentration of 20%. COS cell expressed rat 5α-reductase was used as the source of type 1 and type 2 in these studies for comparison.
# (§2) All samples in the enzyme assay were tested in a reaction mixture containing 33 mM succinic acid, 44 mM imidazole, 33 mM diethanolamine (SID), pH 5.5 and pH 7.5, 0.5 μM [7-^3 H]-testosterone (specific activity approximately 20-30 Ci/mmol), 1.5 μM unlabeled testosterone, 1 mM DTT and […] NADPH in a final volume of […]. The assay was initiated by the addition of enzyme and incubated at 37° C. for 15 min.
# [5] = biological target: T2, 5α-reductase in rat placenta; assay: 5α-reductase assay, rat placenta microsomes; format: biochemical; details: read-out: IC50 finasteride
# Procedure: (§3) The 5α-reductase content of microsomes prepared from rat placenta was determined.
# as §1, §2
# [6] = system: human type 2 enzyme; details: cited from earlier work
# [7] = biological target: T3, rat type 1 5α-reductase; assay: 5α-reductase assay, COS cell expressed rat type 1; format: biochemical; details: recombinant rat type 1; read-out: IC50 finasteride
# Procedure: as §1, §2
# [8] = system: parturition in pregnant rats; details: oral dose 10 mg/kg on GD 21; rats treated with 200 mg/kg progesterone subcutaneously; cited from earlier work
# [9] = system: parturition in the rat; assay: Parturition with test compound and progesterone antagonist RU-486 (Example 3); format: in vivo, Sprague-Dawley rat; details: RU-486 10 mg/kg on GD 21 (Group 2)
# Procedure: In order to determine if the effects in the experiments conducted in Examples 1 and 2 were due to decreased progesterone catabolism associated with inhibition of 5α-reductase by the 5α-reductase type 1 inhibitor 3-oxo-4-aza-4,7β-dimethyl-16β-(4-chlorophenoxy)-5α-androstane ("test compound"), the following study was performed with the 5α-reductase inhibitor 3-oxo-4-aza-4,7β-dimethyl-16β-(4-chlorophenoxy)-5α-androstane and the progesterone antagonist RU-486.
# Fifty-six pregnant female Sprague-Dawley rats (Charles River Laboratories, Raleigh, N.C.), approximately 10.5 weeks old weighing from 212 to 319 grams were employed in the study. They were fed and housed as described in EXAMPLE 1. The females were assigned to the following groups based on a weight independent random allocation scheme:
# Control (Control article)
# test compound @ 20 mg/kg/day
# A dose of 10 mg/kg off RU-486 was selected based on the studies of Abdellilah et al., Progesterone and Mifepristone modify principally the response of circular myometrium to oxytocin in preparturient rats: comparison with response to acetylcholine and to calcium J. Pharmacol. and Exp. Therp.
# The drugs were administered by oral gavage. The control article and vehicle consisted of 0.5% methylcellulose in deionized water with 0.02% sodium lauryl sulfate (SLS) and were prepared on a weekly basis and refrigerated when not in use. The test compound formulation (4 mg/mL, in vehicle) was prepared on a weekly basis and was refrigerated when not in use. The RU-486 formulation (2 mg base compound/mL, in 0.5% methylcellulose in deionized water) was prepared on a daily basis.
# [10] = substrate: C[C@]12CC[C@H]3[C@@H](CCC4=CC(=O)CC[C@@]43C)[C@@H]1CC[C@@H]2O; assay: 5α-reductase assay, rat placenta microsomes; format: biochemical; details: other: rat placenta microsomes; 37.0 °C
# Procedure: as §3, §1, §2
# [11] = substrate: C[C@]12CC[C@H]3[C@@H](CCC4=CC(=O)CC[C@@]43C)[C@@H]1CC[C@@H]2O; assay: 5α-reductase assay, COS cell expressed rat type 1; format: biochemical; details: other: recombinant rat type 1; 37.0 °C
# Procedure: as §1, §2
# [12] = substrate: C[C@]12CC[C@H]3[C@@H](CCC4=CC(=O)CC[C@@]43C)[C@@H]1CC[C@@H]2O; assay: 5α-reductase assay, COS cell expressed rat type 2; format: biochemical; details: other: rat type 2; 37.0 °C
# Procedure: as §1, §2
molecule,measurement,setting,value
O=S(=O)([O-])[O-].[Mg+2] [magnesium sulfate],adverse effects at plasma concentrations above the therapeutic range,[1]; above 4 to 8 mg/dL,"inhibition of cardiac conduction and neuromuscular transmission, respiratory depression and cardiac arrest"
"C[C@]12CC[C@@H](O)C[C@@H]1CC[C@@H]1[C@@H]2CC[C@]2(C)[C@@H](O)CC[C@@H]12 [Example 3α-Adiol, 5α-androstan-3α,17β-diol]",mice in which parturition was induced,[2],93%
CC(NCCc1ccc(O)cc1)C(O)c1ccc(O)cc1 (stereo not drawn) [ritodrine],side effects,[1],"tachycardia, increased renin secretion, hyperglycemia (and reactive hypoglycemia in the infant)"
CCO [ethanol],effectiveness in preventing premature labor,[1]; compared with ritodrine,as effective as ritodrine in preventing premature labor
same,reduction in the incidence of fetal respiratory distress,[1]; compared with ritodrine,does not produce a corresponding reduction in the incidence of fetal respiratory distress
CC(C)(C)NCC(O)c1ccc(O)c(CO)c1 (stereo not drawn) [salbutamol],side effects,[1],side effects similar to those of ritodrine
CC(=O)[C@H]1CC[C@H]2[C@@H]3CCC4=CC(=O)CC[C@]4(C)[C@H]3CC[C@]12C [progesterone],effect on pregnancy and myometrial contractile activity,[3],prolong pregnancy and impair myometrial contractile activity
"CC(C)(C)NC(=O)[C@H]1CC[C@H]2[C@@H]3CC[C@H]4NC(=O)C=C[C@]4(C)[C@H]3CC[C@]12C [finasteride, 17β-(N-tert-butylcarbamoyl)-3-oxo-4-aza-5α-androst-1-en-3-one]",IC50,[4],1 nM
same,IC50,[5],11 nM
same,inhibition of the human type 2 enzyme,[6],potent inhibitor
same,IC50,[7],13 nM
CC(C)(C)NCC(O)c1cc(O)cc(O)c1 (stereo not drawn) [terbutaline],side effects,[1],side effects similar to those of ritodrine
"CC#C[C@]1(O)CC[C@H]2[C@@H]3CCC4=CC(=O)CCC4=C3[C@@H](c3ccc(N(C)C)cc3)C[C@@]21C [RU-486, reference compound]",induction of parturition,[8],able to induce parturition
same,mice in which parturition was induced,[2],100%
same,Mean Length of Gestation ± SD,"[9]; only females completing delivery, 10 mg/kg",22.3 days and 22.3 ± 0.4 days
same,number of females completing parturition,[9]; delivery day GD 22.0,7
same,number of females completing parturition,[9]; delivery day GD 22.5,5
same,number of females completing parturition,[9]; delivery day GD 23.0,2
B1,Km,[10],5.2 µM
B2,Km,[11],1.7 µM
B3,Km,[12],0.15 µM
